The structures appear in SMILES notation. “And” between values parts separate entries of the source, which are not always exact repeats. Equal entries are not always repeated.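 Where inhibition never reached the appropriate level, the endpoint shown equals the highest concentration tested. Otherwise, values were interpolated linearly from a five-concentration, 48-hour dose response in 96-well plates. The concentration for 50% growth inhibition is given as GI50. TGI marks complete inhibition of growth.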 A value given as a limit tells only on which side of the number the result lay.

Common to all, as to assay: NCI anticancer screen, dose series, 48 h
Assay [1] relates to MALME-3M melanoma.
For assay [2], the system named is NCI-H460 lung.
Assay [3] concerns TK-10 renal.
Assay [4] has as its system SF-268 CNS.
The test system of assay [5] is LOX IMVI melanoma.
The test system of assay [6] is KM12 colon.
Assay [7] relates to SK-OV-3 ovarian.
Assay [8] deals with HT29 colon.
Assay [9] relates to 786-0 renal.
The subject of assay [10] is SK-MEL-5 melanoma.

On to `C#Cc1c(C)c(/C=C/C(C)=C\C(=O)OC)n(C)c1C`, for which the TGI in assay [1], in [2], in [3], in assay [4], in assay [5] and in [6] was > 100 µM each time. The TGI in assay [7], in assay [8] and in [9] was > 100 µM in each case.

Turning to `CN(C)NC(=O)NC12CC3CC(CC(C3)C1)C2`, the TGI in [2] is > 100 µM; in assay [3], > 10 µM; in assay [4] it was > 100 µM; in [5], > 100 µM; in assay [6], > 100 µM; in assay [10], > 100 µM. In addition, the TGI in [7], in assay [8] and in [9] was > 100 µM in each case.

Consider `COC1=CC(=O)C2(C=C1OC)OC[C@H]1Oc3c(ccc4c3C=CC(C)(C)O4)C(=O)[C@H]12` (stereo partly specified), for which the TGI in assay [1], in [2], in [3], in assay [5], in assay [6] and in assay [7] was > 100 µM each time. Moreover, the TGI in assay [8] and in [9] was > 100 µM throughout.

Take `C=C1C(=O)C23C(O)CC4C(C)(C)CCC(O)C4(C)C2CC(OC(C)=O)C1[C@H]3O` (stereo partly specified): the TGI was found to be 9.42 µM in assay [1]; 6.65 µM in assay [2]; 3.72 µM in assay [3]; 22.1 µM in assay [4]; 15.8 µM in assay [5]; 31.1 µM in assay [6]. Further, the TGI turned out to be 41.4 µM in assay [7] and 6.82 µM in assay [9].

As to `COc1ccc(/C=C\c2cc(OC)c(OC)c(OC)c2)cc1NC(=O)/C=C/c1cc(OC)c(OC)c(OC)c1`, the GI50 was 3.61 µM in assay [2]; > 100 µM in [3]; > 100 µM in assay [4]; 4.9 µM in assay [5]; 4.67 µM in assay [6]; 2.21 µM in assay [10]. For the same compound, the GI50 was 3.55 µM in assay [8] and 5.43 µM in assay [9]. The TGI in [2] is > 100 µM; in assay [3], > 100 µM; in assay [4] it was > 100 µM; in [5], > 100 µM; in assay [6], > 100 µM; in assay [10] it was 6.73 µM. For the same compound, the TGI in assay [8] and in assay [9] was > 100 µM in each case.

With `C=C1C(C)C2C(Cc3ccccc3)NC(=O)C23C(OC(C)=O)C=CC(C)(O)C(=O)C(C)C/C=C/C3C1O` (stereo unspecified), the GI50 was 61.7 µM in assay [1]; 0.291 µM in assay [2]; 0.732 µM in assay [3]; 0.698 µM in assay [4]; 163 µM in [6]; 2.17 µM in assay [10]. Moreover, the GI50 in assay [7] is 0.0761 µM and 0.23 µM; in assay [8], 0.0505 µM and 0.176 µM and 0.0663 µM; in [9] it was 2.05 µM. Also, the TGI is > 96.7 µM and 489 µM in [1]; > 295 µM in assay [2]; > 500 µM in assay [6]; 49.5 µM and 76.1 µM in assay [7]; > 278 µM in [8]; 56.2 µM and > 120 µM in assay [9].

With `COc1cc2c3c(c4cc(OC)c(OC)cc4c2cc1OC)CN1CCC[C@H]1C3`, the GI50 was 0.03 µM and < 0.01 µM in assay [2]; 0.0142 µM in [4]; 0.0452 µM and < 0.01 µM in assay [6]; 0.0607 µM and < 0.01 µM in assay [10]; 0.034 µM and < 0.01 µM in [8]; 0.0417 µM and 0.0103 µM in assay [9]. Also, the TGI in assay [2] was 1.13 µM and 0.825 µM; in assay [3], 0.103 µM and 0.497 µM; in assay [5], 0.245 µM and 1.46 µM; in assay [6], 1.22 µM; in [7], 0.172 µM; in assay [8], 1.14 µM. Further, the TGI in assay [9] is > 10 µM and 2.46 µM.

For `O=C(CC1(O)C(=O)Nc2ccc(Cl)cc21)c1ccc(C(=O)NCC2CCC3(CC2)OOC2(CCCCC2)OO3)cc1` (stereo unspecified), the GI50 in assay [3] is 1.78 µM; in [4], 2.94 µM; in [5] it was 0.301 µM; in [6], 1.77 µM; in assay [10] it was 1.75 µM; in assay [7] it was 2.6 µM. Also, the GI50 in assay [8] was 3.19 µM; in [9], 0.535 µM. For the same compound, the TGI was determined as 3.28 µM in assay [3]; 12.9 µM in [4]; 8.85 µM in assay [5]; 5.22 µM in assay [6]; 3.4 µM in assay [10]; 8.01 µM in [7]. Moreover, the TGI is 11.2 µM in assay [8] and 1.86 µM in assay [9].

Turning to `Cc1nc2ccccc2c(=O)n1/N=C(\N=Nc1cc(Cl)ccc1Cl)c1ccc(N(C)C)cc1`, the TGI in [2], in assay [3], in assay [4], in [5], in assay [10] and in [7] was > 100 µM throughout. The TGI in [8] and in assay [9] was > 100 µM throughout.

For the compound `COc1cc([C@H]2OC[C@@H]3C(c4cc(OC)c5c(c4)OCO5)OC[C@H]23)cc(OC)c1OC` (stereo partly specified), the TGI in [2] is > 100 µM; in assay [3] it was > 100 µM; in assay [4], > 100 µM; in assay [5] it was > 100 µM; in assay [6], > 100 µM; in assay [10], 44.9 µM. Also, the TGI in [7], in assay [8] and in assay [9] was > 100 µM throughout.

For the compound `CC(C)(c1ccc(C=O)o1)c1ccc(C(C)(C)c2ccc(C=O)o2)o1`, the TGI in assay [1], in [2], in assay [3], in assay [4], in assay [5] and in [6] was > 100 µM in each case. Further, the TGI in assay [7], in [8] and in [9] was > 100 µM each time.

In the case of `C=C(C)[C@@H]1CC[C@]2(C(=O)O)CC[C@]3(C)[C@H](CC[C@@H]4[C@@]5(C)CCC(N)C(C)(C)[C@@H]5CC[C@]43C)[C@@H]12` (stereo partly specified), the GI50 was 1.56 µM in [1], 3.12 µM in [2], > 100 µM in [7] and 1.59 µM in [9]. Also, the TGI was 3.22 µM in assay [1], > 100 µM in assay [2], > 100 µM in assay [7] and 3.07 µM in assay [9].

With `O=C1c2c(c3c4ccccc4n(CC4CO4)c3c3[nH]c4ccccc4c23)C(=O)N1Cc1ccccc1` (stereo unspecified), the TGI in [1], in [2], in assay [3], in assay [4], in assay [5] and in assay [6] was > 100 µM each time. The TGI in assay [7], in [8] and in [9] was > 100 µM in each case.

For `N#Cc1sc2nc3c(c(-c4ccccc4)c2c1N)CCCC3`, the TGI in [1], in [2], in [3], in assay [5], in [6] and in assay [7] was > 100 µM each time. Further, the TGI in assay [8] and in [9] was > 100 µM in each case.

In the case of `COc1ccccc1NC(=O)c1sc2ncn(CCOc3ccccc3)c(=O)c2c1C`, the GI50 in assay [2] is 2.55 µM; in assay [3] it was > 50 µM; in [4], 3.2 µM; in assay [5] it was 1.52 µM; in assay [6], 1.43 µM; in assay [10], 1.15 µM. For the same compound, the GI50 in assay [7] and in [9] was > 50 µM in each case. In addition, the TGI in assay [2] is > 50 µM; in assay [3], > 50 µM; in [4], > 50 µM; in assay [5] it was > 50 µM; in [6], > 50 µM; in [10] it was 4.2 µM. The TGI in [7] and in assay [9] was > 50 µM in each case.

For `NN=C1/C(=C\c2ccccc2)CCC/C1=C/c1ccccc1`, the TGI is 81.1 µM in assay [1]; > 100 µM in assay [2]; > 100 µM in [3]; > 100 µM in assay [4]; 54.3 µM in assay [5]; > 100 µM in [6]. Besides, the TGI in [7] and in assay [9] was > 100 µM in each case.

Regarding `CCCCCCCCCC(=O)Oc1ccc(/C(=C(/C)c2ccccc2)c2ccc(OCCN3CCCC3)cc2)cc1`, the GI50 in assay [1] was 7.76 µM; in assay [2] it was 8.46 µM; in assay [3] it was 8.86 µM; in assay [4] it was 8.16 µM; in assay [5] it was 8.02 µM; in [6], 8.78 µM. Further, the results for the GI50 in assay [10], in assay [7] and in assay [9] were 8.13 µM, 7.36 µM and 8.77 µM, respectively. The TGI in assay [1] amounted to 15.7 µM; in assay [2] it was 15.9 µM; in assay [3], 16.7 µM; in assay [4] it was 17.2 µM; in assay [5], 14.8 µM; in [6], 16.7 µM. In addition, the TGI in assay [10] is 14.9 µM; in assay [7], 14.8 µM; in [9], 16.8 µM.

In the case of `CCN(CC)c1ccc(N=Nc2ccc(-c3nc4cccnc4s3)cc2)cc1`, the TGI in assay [1], in [2], in [3], in assay [4], in assay [6] and in [10] was > 100 µM throughout. Moreover, the TGI in [7], in [8] and in assay [9] was > 100 µM throughout.

Source of the values: PubChem BioAssay (NCI).
